Experiment [1] addresses Glycogen synthase kinase-3 beta (Homo sapiens, UniProt P49841). Description: Inhibitory concentration for Glycogen synthase kinase-3 beta was determined in the presence of 10 um ATP (Km 10 uM).
Experiment [2] relates to HCT-116. Briefly: Inhibitor concentration to reduce HCT 116 cell line (tumor) growth by 50% over 72 h. It is filed as functional. Particulars: Homo sapiens, HCT-116, 72 h.
Experiment [3] concerns the target Cyclin-dependent kinase 2 (Homo sapiens, UniProt P24941). Briefly: Inhibitory concentration for Cyclin-dependent kinase 2 was determined in the presence of 100 um ATP (Km 50 uM).

Our source for the IC50 and GI50 values is ChEMBL document CHEMBL1141971, “Structure-guided design of pyrazolo[1,5-a]pyrimidines as inhibitors of human cyclin-dependent kinase 2” (Bioorg Med Chem Lett, 2005).

Sequence of Glycogen synthase kinase-3 beta (P49841 whole entry): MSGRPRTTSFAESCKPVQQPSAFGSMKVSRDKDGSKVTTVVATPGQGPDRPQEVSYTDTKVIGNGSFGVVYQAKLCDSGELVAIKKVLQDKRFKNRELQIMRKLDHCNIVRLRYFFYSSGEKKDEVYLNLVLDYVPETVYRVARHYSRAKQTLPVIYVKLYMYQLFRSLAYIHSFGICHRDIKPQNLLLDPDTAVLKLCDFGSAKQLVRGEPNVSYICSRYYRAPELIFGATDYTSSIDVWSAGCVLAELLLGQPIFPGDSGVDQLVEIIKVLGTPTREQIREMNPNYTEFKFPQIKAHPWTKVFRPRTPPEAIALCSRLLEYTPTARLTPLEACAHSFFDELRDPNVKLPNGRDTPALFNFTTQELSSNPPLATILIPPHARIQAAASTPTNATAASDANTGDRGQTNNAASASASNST

`CN(C)S(=O)(=O)c1ccc(Nc2cc(N[C@H]3CC[C@H](N)CC3)nc3c(C#N)cnn23)cc1`: the IC50 (commonly the concentration needed to halve the response being measured) in experiment [1] is 460 nM. Halving of growth in experiment [2] (GI50) required 11000 nM.
Consider `CN(C)S(=O)(=O)c1ccc(Nc2cc(N[C@H]3CC[C@H](N)CC3)nc3c(Br)cnn23)cc1Cl`, for which the IC50 in experiment [1] is 8700 nM. Also, halving of growth in experiment [2] (GI50) required 340 nM.
For the compound `CN(C)S(=O)(=O)c1ccc(Nc2cc(N[C@H]3CC[C@H](N)CC3)nc3c(Cl)cnn23)cc1`, the IC50 in experiment [1] was 5100 nM; in experiment [3], 8 nM. Also, halving of growth in experiment [2] (GI50) required 2700 nM.
For `N[C@H]1CC[C@H](Nc2cc(Nc3ccc(S(=O)(=O)c4cccs4)cc3)n3ncc(Cl)c3n2)CC1`, growth in experiment [2] was halved (GI50) at 120 nM. In experiment [3], the IC50 was 11 nM.
As to `N[C@H]1CC[C@H](Nc2cc(Nc3ccc(S(=O)(=O)c4ccccc4)cc3)n3ncc(Br)c3n2)CC1`, the IC50 in experiment [1] was 5300 nM; in experiment [3] it was 16 nM. It took 80 nM to inhibit growth in experiment [2] by half (GI50).
On to `CC(C)c1cnn2c(Nc3ccc(S(=O)(=O)N(C)C)cc3)cc(O[C@H]3CC[C@H](N)CC3)nc12`, for which the IC50 in experiment [1] was 28000 nM. Besides, the GI50 (as a rule, the concentration at which growth is held to half of that of the control) in experiment [2] came to 710 nM.
As to `CC(C)c1cnn2c(Nc3ccc(S(=O)(=O)N(C)C)cc3)cc(N[C@H]3CC[C@H](N)CC3)nc12`, the IC50 in experiment [1] is 40000 nM. For the same compound, growth in experiment [2] was halved (GI50) at 580 nM.
With `CCN[C@H]1CC[C@H](Nc2cc(Nc3ccc(S(=O)(=O)N(C)C)cc3)n3ncc(C(C)C)c3n2)CC1`, the IC50 was > 50000 nM in experiment [1] and 61 nM in experiment [3]. In experiment [2], it took 1200 nM to inhibit growth by half (GI50).
As to `CC(C)COc1cc(Nc2ccc(S(C)(=O)=O)cc2)n2ncc(C(C)C)c2n1`, in experiment [1], the IC50 stood at 12000 nM. In addition, the GI50 in experiment [2] amounted to 7800 nM.
The like results for `CCN(CC)[C@H]1CC[C@H](Nc2cc(Nc3ccc(S(=O)(=O)N(C)C)cc3)n3ncc(C(C)C)c3n2)CC1` were, in that order, > 50000 nM and 16000 nM.
In the case of `CC(C)c1cnn2c(Nc3ccc(S(=O)(=O)N(C)C)cc3)cc(NC3CCCC(N)C3)nc12` (stereo not drawn), the IC50 was > 50000 nM in experiment [1] and 2100 nM in experiment [3]. The same compound gave a GI50 in experiment [2] of 3400 nM.
On to `CN(C)S(=O)(=O)c1ccc(Nc2cc(N[C@H]3CC[C@H](N)CC3)nc3c(C4CCCC4)cnn23)cc1`, for which the IC50 in experiment [1] is 22000 nM.
Take `CC(C)COc1cc(Nc2ccc(S(=O)(=O)N(C)C)cc2)n2ncc(C(C)C)c2n1`: the IC50 in experiment [1] was found to be 50000 nM; in experiment [3] it was 1200 nM. This compound also had a concentration for 50% growth inhibition (GI50) in experiment [2] of 7600 nM.
Regarding `CN(C)S(=O)(=O)c1ccc(Nc2cc(N[C@H]3CC[C@H](N)CC3)nc3c(Br)cnn23)cc1`, the IC50 in experiment [1] is 3400 nM; in experiment [3] it was 10 nM. Besides, in experiment [2], the GI50 worked out at 910 nM.
